In one test the test system is CU-ACC1. The test can be described thus: area under concentration-response curve (viability) (AUC (a.u.)); higher = less active. To be noted: 48 h. Summed up: (§1)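 Cells from three adrenocortical carcinoma lines were seeded at 500–1,000 cells/well in 5 µL medium in 1,536-well plates. Each library compound was added as 23 nL at 11 concentrations, and after 48 h CellTiter-Glo was added for 15 minutes at room temperature before reading luminescence. Plate-wise normalisation to vehicle and empty-well controls preceded curve fitting. AC50 and area under the curve were calculated only for inhibitory or non-responding curve classes.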

A further test relates to CU-ACC2. The test is described as above. To be noted: 48 h. In outline: as §1

Take `CNC(=O)c1ccc(N2C(=S)N(c3cnc(C#N)c(C(F)(F)F)c3)C(=O)C23CCC3)cc1F`: the “area under concentration-response curve” value in the test with CU-ACC1 turned out to be 505; with CU-ACC2 it was 565.

Turning to `CC1(C)O[C@@H]2C[C@H]3[C@@H]4C[C@H](F)C/5=C/C(=O)/C=C\[C@]5(C)[C@@]4(F)[C@@H](O)C[C@]3(C)[C@@]2(O1)C(=O)CO`, the figures for the “area under concentration-response curve” value in the test on CU-ACC1 and in the test on CU-ACC2 were 485 and 586, respectively.

For `CC1=C(C=CC=C1)N2\C(=N/C3=C(C(=CC=C3)C)C2=O)C[N]4N=CC5=C4N=CN=C5N`, the “area under concentration-response curve” value is 583 with CU-ACC1 and 614 with CU-ACC2.

As to `CN1C(=N)N[C@](C)(c2cc(NC(=O)c3ccc(F)cn3)ccc2F)C[S+]1(=O)[O-]`, the “area under concentration-response curve” value in the test with CU-ACC1 came to 563; in the test with CU-ACC2 it was 611.

For the compound `CC(C)(c1ccc(OCC(O)CO)cc1)c1ccc(OCC(O)CCl)cc1` (stereo unspecified), the entries for the “area under concentration-response curve” value in the test on CU-ACC1 and in the test on CU-ACC2 were 384 and 301, respectively.

Take `COc1c(C)cc(NC(=O)c2nn(Cc3ccc(F)cc3)c3c2CN(C(=O)c2ccc[nH]2)C[C@]3(C)C(N)=O)cc1C`: the results for the “area under concentration-response curve” value in the test on CU-ACC1 and in the test with CU-ACC2 were 567 and 646, respectively.

Turning to `C[C@H]1CN(C[C@@H](C)O1)CC(=O)NC2=CC=C3SC4=C(CC3=C2)C=CC=C4\C5=C\C(=O)\C=C(/O5)N6CCOCC6`, the “area under concentration-response curve” value in the test with CU-ACC1 was found to be 439; in the test with CU-ACC2 it was 428.

On to `OC[C@H]1O[C@@H](O[C@@H]2O\C=C(/[C@H]3C\C=C(CO)/[C@@H]23)C(O)=O)[C@H](O)[C@@H](O)[C@@H]1O`, for which the figures for the “area under concentration-response curve” value in the test with CU-ACC1 and in the test on CU-ACC2 were 538 and 594, respectively.

For the compound `CCN1CCCC1CNC(=O)c1cc([S+](=O)([O-])CC)c(N)cc1OC` (stereo unspecified), the “area under concentration-response curve” value in the test with CU-ACC1 came out at 561; in the test on CU-ACC2, 591.

`O=C1Nc2ccccc2/C1=C1\Nc2ccccc2C1=O`: the “area under concentration-response curve” value with CU-ACC1 amounted to 557; with CU-ACC2, 589.

Turning to `COc1cc(/C=C(\C#N)C(=O)Nc2nnc(C(F)(F)F)s2)ccc1OCc1ccc(C(F)(F)F)cc1C(F)(F)F`, the “area under concentration-response curve” value with CU-ACC1 came out at 450; with CU-ACC2, 488.

Regarding `N=C1N[C@H]2[C@H](CS[C@H]2CCCCC(=O)O)N1`, the “area under concentration-response curve” value with CU-ACC1 was 217; in the test on CU-ACC2 it was 256.

Turning to `CNC(=O)c1ccccc1Nc1nc(Nc2ccc3c(c2OC)CCC[C@@H](N2CCN(CCO)CC2)C3)ncc1Cl`, the “area under concentration-response curve” value in the test with CU-ACC1 stood at 548; in the test on CU-ACC2 it was 644.

With `CCN(CC)C(=O)Cc1csc(N[S+](=O)([O-])c2cccc(Cl)c2C)n1`, the results for the “area under concentration-response curve” value with CU-ACC1 and in the test with CU-ACC2 were 415 and 445, respectively.

Consider `O=C/1\C=C(/OC(=C1)/C2=C3SC4=C(SC3=CC=C2)C=CC=C4)N5CCOCC5`, for which the results for the “area under concentration-response curve” value with CU-ACC1 and in the test with CU-ACC2 were 550 and 650, respectively.

As for `C[C@]12CC[C@@H]3c4ccc(O)cc4CC[C@H]3[C@@H]1C[C@@H](O)[C@@H]2O`, the “area under concentration-response curve” value with CU-ACC1 is 388; in the test on CU-ACC2 it was 398.

Turning to `Cn1cc(-c2ccncc2)c(-c2ccc(OCc3ccc4ccccc4n3)cc2)n1`, the “area under concentration-response curve” value in the test on CU-ACC1 was found to be 495; with CU-ACC2 it was 597.

As to `CC(=O)Nc1ccc(OC[C@](C)(O)C(=O)Nc2ccc([N+](=O)[O-])c(C(F)(F)F)c2)cc1`, the “area under concentration-response curve” value was 519 in the test with CU-ACC1 and 515 in the test with CU-ACC2.

For the compound `CC(=O)OCC(=O)[C@@]1(O)CC[C@H]2[C@@H]3CCC/4=C/C(=O)CC[C@]4(C)[C@H]3C(=O)C[C@]12C`, the “area under concentration-response curve” value with CU-ACC1 came out at 531; with CU-ACC2, 617.

Consider `CC/C(=C(/c1ccc(/C=C/C(=O)O)cc1)c1ccc2[nH]ncc2c1)c1ccc(F)cc1Cl`, for which the “area under concentration-response curve” value amounted to 501 with CU-ACC1 and 508 with CU-ACC2.

Take `Cc1cccc(N(C)C(=S)Oc2ccc3ccccc3c2)c1`: the “area under concentration-response curve” value in the test with CU-ACC1 was determined as 428; in the test with CU-ACC2, 497.

Turning to `C[C@H](Nc1nc(N[C@H](C)C(F)(F)F)nc(-c2cccc(Cl)n2)n1)C(F)(F)F`, the “area under concentration-response curve” value came out at 547 in the test with CU-ACC1 and 606 in the test on CU-ACC2.

Consider `Cn1ccc2cc3c(cc21)CCN3C(=O)Nc1cccnc1`, for which the “area under concentration-response curve” value in the test with CU-ACC1 was determined as 455; in the test on CU-ACC2, 490.

For `Cl.NC(CO)C(=O)NNCc1ccc(O)c(O)c1O` (stereo unspecified), the “area under concentration-response curve” value in the test on CU-ACC1 was 562; in the test with CU-ACC2 it was 627.

`Nc1nc(-c2nn(Cc3ccccc3F)c3ncccc23)nc(N)c1N1CCOCC1`: the “area under concentration-response curve” value was determined as 605 in the test on CU-ACC1 and 599 in the test with CU-ACC2.

Consider `COc1cc([C@@H]2c3cc4c(cc3[C@@H](O[C@@H]3O[C@@H]5CO[C@@H](C)O[C@H]5[C@H](O)[C@H]3O)[C@H]3COC(=O)[C@H]23)OCO4)cc(OC)c1O`, for which the “area under concentration-response curve” value in the test on CU-ACC1 came out at 492; in the test with CU-ACC2 it was 592.

For the compound `COc1ccc(-n2nc(C(N)=O)c3c2C(=O)N(c2ccc(N4CCCCC4=O)cc2)CC3)cc1`, the “area under concentration-response curve” value with CU-ACC2 is 374.

On to `CC(C)(N)C(=O)N[C@H](COCc1ccccc1)C(=O)N1CCC2(CC1)CN([S+](C)(=O)[O-])c1ccccc12`, for which the “area under concentration-response curve” value in the test with CU-ACC2 came out at 489.

Turning to `Cc1ccccc1C(=O)c1ccc(Nc2ccc(Br)cc2N)cc1Cl`, in the test with CU-ACC2, the “area under concentration-response curve” value amounted to 502.

In the case of `O=C(O)c1ccc(-n2nc(-c3ccccc3O)nc2-c2ccccc2O)cc1`, the “area under concentration-response curve” value in the test on CU-ACC2 was found to be 590.

Turning to `CN1CC/C(CC1)=C3\c4ccccc4CCc2sccc23`, the “area under concentration-response curve” value with CU-ACC2 amounted to 659.

On to `O=[S+]([O-])(c1cccc2c(I)cccc12)N1CCCNCC1`, for which the “area under concentration-response curve” value in the test with CU-ACC2 came out at 649.

On to `O=[S+]([O-])(NCCNC/C=C/c1ccc(Br)cc1)c1cccc2cnccc12`, for which the “area under concentration-response curve” value in the test on CU-ACC2 amounted to 595.

As for `COCCCOc1ccnc(CS(=O)c2nc3ccccc3[n-]2)c1C.[Na+]` (stereo unspecified), the “area under concentration-response curve” value in the test on CU-ACC2 amounted to 564.

As for `NC1=NC(=O)N2CC12` (stereo unspecified), in the test on CU-ACC2, the “area under concentration-response curve” value is 592.

With `OC1=CC=C2\C3=C(CNCC3)/C(=O)OC2=C1C4OCCCO4`, the “area under concentration-response curve” value in the test with CU-ACC2 came to 623.

With `CN1CCCN=C1/C=C/c1cccs1`, the “area under concentration-response curve” value in the test with CU-ACC2 amounted to 211.

For the compound `C=CC(=O)Nc1ccc(F)c(-c2ncnc3[nH]cc(C(=O)OCC)c23)c1`, in the test with CU-ACC2, the “area under concentration-response curve” value came out at 489.

For `Nc1nc(F)nc2c1ncn2C1OC(COP(=O)(O)O)C(O)C1O` (stereo unspecified), the “area under concentration-response curve” value in the test on CU-ACC2 is 619.

On to `CO[C@H]1C[C@@H]2CC[C@@H](C)[C@@](O)(O2)C(=O)C(=O)N2CCCC[C@H]2C(=O)O[C@H]([C@H](C)C[C@@H]2CC[C@@H](OP(C)(C)=O)[C@H](OC)C2)CC(=O)[C@H](C)/C=C(\C)[C@@H](O)[C@@H](OC)C(=O)[C@H](C)C[C@H](C)/C=C/C=C/C=C/1C`, for which the “area under concentration-response curve” value in the test on CU-ACC2 amounted to 536.
